Test results as given in article PMC5395518, “Design, synthesis, and biological evaluation of the novel glycyrrhetinic acid-cinnamoyl hybrids as anti-tumor agents” (Chemistry Central Journal, 2016).

Experiments:
Hela cells = assay: MTT cytotoxicity assay, Hela; format: cell-based, human; conditions: MTT, 72 h, mean ± SD (n = 3)
Excerpt: (§1) HepG2 (human hepatocellular carcinoma), Hela (human cervical cancer), HT-29 (human colon carcinoma), MDCK (Madin–Darby canine kidney), H9C2 (rat myocardial cells) and HY926 were purchased from the Chinese Academy of Medical Sciences and Peking Union Medical College. All of these cell lines were maintained in RPMI-1640 (DMEM) supplemented with 10% (v/v) fetal bovine serum (FBS) and 1% (v/v) penicillin/streptomycin (Thermo Technologies, New York, NY, USA) under a humidified atmosphere containing 5% CO2 at 37 °C. To provide stock solutions which were used to prepare various concentrations of treatment media, GA and hybrids were added a volume of DMSO.
(§2) The cytotoxicity of these compounds was evaluated on three human cancer cell lines (HepG2, HT-29, Hela) and three non-tumor cells lines (MDCK, HY926, H9C2) and MTT assay was performed to detect the cell proliferation. Simply, exponentially growing cells were cultured in 96-well plates (3 × 10^3 cells/well). And the plates were placed in a humidified atmosphere for 72 h at 37 °C with 5% CO2. After added MTT solution (5 mg/mL) 20 μL to each well, the plate was incubated for a further 4 h. Then the cell supernatant was removed and 150 μL DMSO was added. Finally, the absorbance was determined at wavelength of 490 nm with the ELISA. Wells without drugs were used to be blanks. The IC50 values were calculated using Logit-method. The following Eq. (1) was proposed to calculate the inhibitory rate of cell growth:1 %inhibition=1-Sample group OD/Control group OD×100%

HepG2 cells = assay: MTT cytotoxicity assay, HepG2; format: cell-based, human; conditions: mean ± SD (n = 3)
Excerpt: as §1, §2

HT-29 cells = assay: MTT cytotoxicity assay, HT-29; format: cell-based, human; conditions: mean ± SD (n = 3)
Excerpt: as §1, §2

MDCK cells = assay: MTT cytotoxicity assay, MDCK (non-tumor); format: cell-based, canine; conditions: MTT, 72 h, mean ± SD (n = 3), non-tumor cells
Excerpt: as §1, §2

HY926 cells = assay: MTT cytotoxicity assay, HY926 (non-tumor); format: cell-based; conditions: MTT, 72 h, mean ± SD (n = 3), non-tumor cells
Excerpt: as §1, §2

H9C2 cells = assay: MTT cytotoxicity assay, H9C2 (non-tumor); format: cell-based, rat; conditions: MTT, 72 h, mean ± SD (n = 3), non-tumor cells
Excerpt: as §1, §2

Compound | IC50 (Hela cells) | IC50 (HepG2 cells; 72 h) | IC50 (HT-29 cells; 72 h) | IC50 (MDCK cells) | IC50 (HY926 cells) | IC50 (H9C2 cells) | IC50 (MDCK cells; listed as DDP) | IC50 (HY926 cells; listed as DDP) | IC50 (H9C2 cells; listed as DDP) | IC50 (Hela cells; Homo sapiens, HeLa) | IC50 (HepG2 cells; Homo sapiens, HepG2, 72 h) | IC50 (HT-29 cells; Homo sapiens, HT-29, 72 h) | IC50 (MDCK cells; Canis lupus familiaris, MDCK) | IC50 (H9C2 cells; Rattus norvegicus, H9c2)
CC1(C)[C@@H](OC(=O)/C=C/c2ccccc2)CC[C@]2(C)[C@H]3C(=O)C=C4[C@@H]5C[C@@](C)(C(=O)O)CC[C@]5(C)CC[C@@]4(C)[C@]3(C)CC[C@@H]12 [Compound 1a, Cinnamoyl-3β-hydroxy-11-oxoolean-12-en-30-oic acid] | 23.7 ± 2.98 µM | 24.4 ± 1.39 µM | 22.3 ± 1.75 µM | 22.6 ± 1.38 µM | 28.9 ± 1.85 µM | 46.1 ± 2.01 µM |  |  |  |  |  |  |  | 
CC1(C(=O)O)CCC2(C)CCC3(C)C(=CC(=O)C4C5(C)CCC(OC(=O)CCc6ccccc6)C(C)(C)C5CCC43C)C2C1 (stereo not drawn) [Compound 1b, Phenylpropanoyl-3β-hydroxy-11-oxoolean-12-en-30-oic acid] | 26.9 ± 1.74 µM | 32.3 ± 1 µM | 28.6 ± 2.99 µM | 33.3 ± 2.98 µM | 33.6 ± 3.09 µM | > 50 µM |  |  |  |  |  |  |  | 
Cc1ccc(/C=C/C(=O)OC2CCC3(C)C(CCC4(C)C3C(=O)C=C3C5CC(C)(C(=O)O)CCC5(C)CCC34C)C2(C)C)cc1 (stereo not drawn) [Compound 2a, (4-Methyl) cinnamoyl-3β-hydroxy-11-oxoolean-12-en-30-oic acid] | 14.2 ± 1.1 µM | 22.1 ± 1.18 µM | 21.7 ± 1.81 µM | 38 ± 1.81 µM | 27.6 ± 1.84 µM | > 50 µM |  |  |  |  |  |  |  | 
COc1cccc(CCC(=O)OC2CCC3(C)C(CCC4(C)C3C(=O)C=C3C5CC(C)(C(=O)O)CCC5(C)CCC34C)C2(C)C)c1OC (stereo not drawn) [Compound 2b, (2,3-Dimethoxy) phenylpropanoyl-3β-hydroxy-11-oxoolean-12-en-30-oic acid] | 23.1 ± 2.33 µM | 33.1 ± 2.09 µM | 29.3 ± 2.22 µM | 41.3 ± 1.48 µM | > 50 µM | 45.8 ± 1.8 µM |  |  |  |  |  |  |  | 
COc1ccccc1/C=C/C(=O)OC1CCC2(C)C(CCC3(C)C2C(=O)C=C2C4CC(C)(C(=O)O)CCC4(C)CCC23C)C1(C)C (stereo not drawn) [Compound 3a, (2-Methoxy) cinnamoyl-3β-hydroxy-11-oxoolean-12-en-30-oic acid] | 24.6 ± 1.72 µM | 32 ± 1.9 µM | 22.2 ± 2.34 µM | 22.9 ± 2.43 µM | > 50 µM | > 50 µM |  |  |  |  |  |  |  | 
COc1ccc(CCC(=O)O[C@H]2CC[C@]3(C)[C@H]4C(=O)C=C5[C@@H]6C[C@@](C)(C(=O)O)CC[C@]6(C)CC[C@@]5(C)[C@]4(C)CC[C@H]3C2(C)C)c(OC)c1OC [Compound 3b, (2,3,4-Trimethoxy) phenylpropanoyl-3β-hydroxy-11-oxoolean-12-en-30-oic acid] | 22.5 ± 2.16 µM | 27.3 ± 1.95 µM | 26.2 ± 1.24 µM | > 30 µM | 38.5 ± 2.02 µM | > 50 µM |  |  |  |  |  |  |  | 
COc1cccc(/C=C/C(=O)OC2CCC3(C)C(CCC4(C)C3C(=O)C=C3C5CC(C)(C(=O)O)CCC5(C)CCC34C)C2(C)C)c1 (stereo not drawn) [Compound 4a, (3-Methoxy) cinnamoyl-3β-hydroxy-11-oxoolean-12-en-30-oic acid] | 17.5 ± 1.52 µM | 12.7 ± 1.1 µM | 14.9 ± 1.8 µM | 22.2 ± 2.56 µM | 31 ± 1.87 µM | > 50 µM |  |  |  |  |  |  |  | 
COc1cc(CCC(=O)OC2CCC3(C)C(CCC4(C)C3C(=O)C=C3C5CC(C)(C(=O)O)CCC5(C)CCC34C)C2(C)C)cc(OC)c1OC (stereo not drawn) [Compound 4b, (3,4,5-Trimethoxy) phenylpropanoyl-3β-hydroxy-11-oxoolean-12-en-30-oic acid] | 28.7 ± 1.68 µM | 22.4 ± 1.29 µM | 22.4 ± 1.2 µM | > 30 µM | > 50 µM | > 50 µM |  |  |  |  |  |  |  | 
COc1ccc(C=CC(=O)OC2CCC3(C)C(CCC4(C)C3C(=O)C=C3C5CC(C)(C(=O)O)CCC5(C)CCC34C)C2(C)C)cc1 (stereo not drawn) [Compound 5a, (4-Methoxy) cinnamoyl-3β-hydroxy-11-oxoolean-12-en-30-oic acid] | 23.4 ± 1.38 µM | 31.2 ± 1.34 µM | 33 ± 1.92 µM | 21.7 ± 1.01 µM | > 50 µM | 36.1 ± 1.92 µM |  |  |  |  |  |  |  | 
COc1cccc(/C=C/C(=O)OC2CCC3(C)C(CCC4(C)C3C(=O)C=C3C5CC(C)(C(=O)O)CCC5(C)CCC34C)C2(C)C)c1OC (stereo not drawn) [Compound 6a, (2,3-Dimethoxy) cinnamoyl-3β-hydroxy-11-oxoolean-12-en-30-oic acid] | 22.5 ± 2.08 µM | 24.4 ± 1.44 µM | 24.4 ± 1.76 µM | 33.7 ± 1.4 µM | 25 ± 1.38 µM | > 50 µM |  |  |  |  |  |  |  | 
COc1ccc(OC)c(/C=C/C(=O)OC2CCC3(C)C(CCC4(C)C3C(=O)C=C3C5CC(C)(C(=O)O)CCC5(C)CCC34C)C2(C)C)c1 (stereo not drawn) [Compound 7a, (2,5-Dimethoxy) cinnamoyl-3β-hydroxy-11-oxoolean-12-en-30-oic acid] | 28 ± 1.63 µM | 25.4 ± 1.97 µM | 26.4 ± 1.96 µM | > 50 µM | 45.1 ± 2.25 µM | > 50 µM |  |  |  |  |  |  |  | 
COc1cc(/C=C/C(=O)O[C@H]2CC[C@]3(C)[C@H]4C(=O)C=C5[C@@H]6C[C@@](C)(C(=O)O)CC[C@]6(C)CC[C@@]5(C)[C@]4(C)CC[C@H]3C2(C)C)cc(OC)c1OC [Compound 9a, (3,4,5-Trimethoxy) cinnamoyl-3β-hydroxy-11-oxoolean-12-en-30-oic acid] | 30.7 ± 1.89 µM | 21.9 ± 1.41 µM | 25.5 ± 1.29 µM | 27.7 ± 1.08 µM | 30.8 ± 1.37 µM | 47.4 ± 1.07 µM |  |  |  |  |  |  |  | 
N.N.[Cl][Pt][Cl] [DPP, cisplatin, reference compound] | 3.76 ± 0.38 µM | 4.57 ± 0.85 µM | 5.28 ± 0.74 µM | 9.97 ± 1.12 µM | 5.12 ± 0.71 µM | 5.31 ± 0.26 µM | < 10 µM | < 10 µM | < 10 µM |  |  |  |  | 
CC1(C)[C@@H](O)CC[C@]2(C)[C@H]3C(=O)C=C4[C@@H]5C[C@@](C)(C(=O)O)CC[C@]5(C)CC[C@@]4(C)[C@]3(C)CC[C@@H]12 [GA, Glycyrrhetinic acid] |  |  |  |  | > 100 µM |  |  |  |  | > 50 µM | > 50 µM | > 50 µM | > 100 µM | > 100 µM
